Read-outs that look alike come from different tables or passages of the source.
How the values were obtained:
[1] = Acute toxicity test; format: in vivo; conditions: mouse, in vivo, iv, route not restated (follows intravenous paragraph), read-out: 50% lethal dose (LD50)
Experimental: Out of the novel compounds obtained according to this invention, SUN 4435 and SUN 5555 were selected to carry out an acute toxicity test. As an animal, there were employed ICR strain mice (4-weeks aged), which were treated by oral and intravenous application of the compounds.

[2] = test system: E. coli KC-14; test: Therapeutic effect against experimental infection of mice (survival); format: in vivo, E. coli; ICR strain male mice
Experimental: (§1) Out of the novel compounds obtained according to this invention, SUN 4435 was selected to carry out a treatment experiment with infected animals. As an animal, there were employed ICR strain male mice (5-weeks aged, with a body weight of 23 to 27 g), which were inoculated intraperitoneally with S. aureus Smith or E. coli KC-14 and 2 hours later, treated by subcutaneous or oral application of SUN 4435.

[3] = test system: E. coli KC-14; test: Therapeutic effect against experimental infection in mice (ED50); format: in vivo, E. coli; ICR strain male mice; conditions: Escherichia coli, 144 h, survival after 6 days, Probit method, read-out: ED50
Experimental: (§2) Out of the novel compound obtained according to this invention, SUN 4435 was selected to carry out a treatment experiment with infected animals. As an animal, there were employed ICR strain male mice (5-weeks aged, with an average body weight of 29.1 g), which were infected intraperitoneally with a test microorganism, S. aureus Smith or E. coli KC-14, and 24 hours later, treated by subcutaneous or oral application of SUN 4435 or SUN 5555. ED50 values were determined from the survival rates found after 6 days in accordance with the Probit method.

[4] = test system: S. aureus Smith; test: Therapeutic effect against experimental infection of mice (survival); format: in vivo, S. aureus; ICR strain male mice
Experimental: as §1

[5] = test system: S. aureus Smith; test: Therapeutic effect against experimental infection in mice (ED50); format: in vivo, S. aureus; ICR strain male mice; conditions: Staphylococcus aureus, po, 144 h, survival after 6 days, Probit method, read-out: ED50
Experimental: as §2

[6] = test system: Ser. marcescens IMA 1136; test: Minimum inhibitory concentration (MIC), agar plate dilution method; format: cell-based; conditions: Serratia marcescens, IMA1136; 10^6 CFU inoculated, 37° C., 18 hours
Experimental: (§3) With regard to the novel compounds obtained according to this invention and the compounds of Reference Examples, their minimum inhibitory concentrations (MIC) were determined by the agar plate dilution method in accordance with the MIC measuring standard method of The Chemotherapeutic Society of Japan, whereby 10^6 colony forming units were inoculated and the minimal concentration to inhibit the microbial growth after inclubation at 37° C. for 18 hours were determined, as shown as μg/ml in Table.

[7] = test system: Ent. cloacae 963; test: as above; format: cell-based; conditions: Enterobacter cloacae, 963; 10^6 CFU inoculated, 37° C., 18 hours
Experimental: as §3

[8] = test system: M. luteus ATCC9341; test: as above; format: cell-based; conditions: Micrococcus luteus, ATCC9341; 10^6 CFU inoculated, 37° C., 18 hours
Experimental: as §3

[9] = test system: E. coli W3630/Rms213; test: as above; format: cell-based; conditions: Escherichia coli, W3630/RMS213, 18 h, read-out: minimum inhibitory concentration (MIC)
Experimental: as §3

[10] = test system: Al. fecalis IFO13111; test: as above; format: cell-based; conditions: 10^6 CFU inoculated, 37° C., 18 hours
Experimental: as §3

[11] = test system: S. aureus FAD209P JC-1; test: as above; format: cell-based; conditions: Staphylococcus aureus, FAD209PJC1; 10^6 CFU inoculated, 37° C., 18 hours
Experimental: as §3

[12] = test system: Pr. morganii IFO3848; test: as above; format: cell-based; conditions: Morganella morganii, IFO3848; 10^6 CFU inoculated, 37° C., 18 hours
Experimental: as §3

[13] = test system: K. pneumoniae PC1602; test: as above; format: cell-based; conditions: Klebsiella pneumoniae, PC1602; 10^6 CFU inoculated, 37° C., 18 hours
Experimental: as §3

[14] = test system: B. fragilis V-280-1; test: as above; format: cell-based; conditions: Bacteroides fragilis, V2801; 10^6 CFU inoculated, 37° C., 18 hours
Experimental: as §3

[15] = test system: B. fragilis GM7000; test: as above; format: cell-based; conditions: Bacteroides fragilis, GM7000; 10^6 CFU inoculated, 37° C., 18 hours
Experimental: as §3

[16] = test system: E. coli NIHI JC-2; test: as above; format: cell-based; conditions: Escherichia coli, NIHIJC2; 10^6 CFU inoculated, 37° C., 18 hours
Experimental: as §3

[17] = test system: Pr. vulgaris GN7919; test: as above; format: cell-based; conditions: Proteus vulgaris, GN7919; 10^6 CFU inoculated, 37° C., 18 hours
Experimental: as §3

[18] = test system: E. coli W3630/Rms212; test: as above; format: cell-based; conditions: Escherichia coli, W3630/RMS212, 18 h, read-out: minimum inhibitory concentration (MIC)
Experimental: as §3

[19] = test system: F. varium ATCC8501; test: as above; format: cell-based; conditions: Fusobacterium varium, ATCC8501; 10^6 CFU inoculated, 37° C., 18 hours
Experimental: as §3

SMILES | MIC [6] [µg/mL] | MIC [7] [µg/mL] | MIC [8] [µg/mL] | MIC [9] [µg/mL] | MIC [10] [µg/mL] | MIC [11] [µg/mL] | MIC [12] [µg/mL] | MIC [13] [µg/mL] | MIC [14] [µg/mL] | MIC [15] [µg/mL] | MIC [16] [µg/mL] | MIC [17] [µg/mL] | MIC [18] [µg/mL] | MIC [19] [µg/mL] | further results
C[C@@H](O)[C@H]1C(=O)N2C(C(=O)O)=C([C@H]3CCCO3)S[C@H]12 [SUN 4435, Potassium (1'R, 2"R, 5R, 6S)-6-(1'-hydroxyethyl)-2-(2"-tetrahydrofuranyl)penem-3-carboxylate] | 3.13 | 3.13 | 0.05 | 0.78 | 0.78 | 0.05 | 6.25 | 0.1 | 0.2 | < 0.025 | 0.78 | 0.39 | 1.56 | 0.2 | LD50 ([1]; female mice): 456 mg/kg; LD50 ([1]; male mice): 480 mg/kg; survival ([2]; oral, 12.5 mg/kg or more, 1.5×10^5 CFU/head): every heads were found to survive; survival ([2]; subcutaneous, 1.5 mg/kg, 3.1×10^5 CFU): three mice per five survived; survival ([2]; subcutaneous, 2.6 mg/kg or more, 3.1×10^5 CFU): every heads were found to survive; ED50 ([3]; KC14, po, oral): 11 mg/kg; ED50 ([3]; KC14, sc, subcutaneous): 1.5 mg/kg; survival ([4]; oral, 3.9 mg/kg, 3.6×10^5 CFU/head): three heads out of five survived; survival ([4]; oral, 9.6 mg/kg or more, 3.6×10^5 CFU/head): every heads were found to survive; survival ([4]; subcutaneous, 1.6 mg/kg or more, 5.7×10^5 CFU): every heads were found to survive; ED50 [5]: 5.9 mg/kg
C[C@@H](O)[C@H]1C(=O)N2C(C(=O)O)=C([C@H]3CCOC3)S[C@H]12 [SUN 4725, Potassium (1'R, 3"S, 5R, 6S)-6-(1'-hydroxyethyl)-2-(11-tetrahydrofuranyl)penem-3-carboxylate] | 6.25 | 6.25 | 0.1 | 1.56 | 0.78 | 0.05 | 12.5 | 0.1 | 0.05 | 0.05 | 1.56 | 0.78 | 3.13 | 0.39 | 
C[C@@H](O)[C@H]1C(=O)N2C(C(=O)O)=C([C@@H]3CCOC3)S[C@H]12 [SUN 4726, Potassium (1'R, 3"R, 5R, 6S)-6-(1'-hydroxyethyl)-2-(3"-tetrahydrofuranyl)penem-3-carboxylate] | 12.5 | 6.25 | 0.05 | 1.56 | 1.56 | 0.05 | 12.5 | 0.05 | 0.05 | 0.05 | 1.56 | 1.56 | 3.13 | 0.1 | 
C[C@@H](O)[C@H]1C(=O)N2C(C(=O)O)=C([C@@H]3CCCCO3)S[C@H]12 [SUN 4740, Potassium (1'R, 2"S, 5R, 6S)-6-(1'-hydroxyethyl)-2-(2"-tetrahydropyranyl)penem-3-carboxylate] | > 50 | > 50 | 0.05 | > 50 | 6.25 | 0.1 | 25 | 3.13 | 0.78 | 0.78 | > 50 | 1.25 | > 50 | 6.25 | 
C[C@@H](O)[C@H]1C(=O)N2C(C(=O)O)=C([C@H]3CCCCO3)S[C@H]12 [SUN 4741, Potassium (1'R, 2"R, 5R, 6S)-6-(1'-hydroxyethyl)-2-(2"-tetrahydropyranyl)penem-3-carboxylate] | 25 | 25 | 0.1 | 6.25 | 0.78 | 0.1 | 3.13 | 0.1 | 0.1 | 0.1 | 6.25 | 3.13 | 12.5 | 0.39 | 
C[C@@H](O)[C@H]1C(=O)N2C(C(=O)O)=C([C@@H]3COCCO3)S[C@H]12 [SUN 4770, Potassium (1'R, 2"S, 5R, 6S)-6-(1'-hydroxyethyl)-2-(2"-para-dioxanyl)penem-3-carboxylate] | 50 | 25 | 0.1 | 12.5 | 6.25 | 0.2 | 25 | 0.78 | 0.39 | 0.39 | 1.56 | 6.25 | 12.5 | 3.13 | 
C[C@@H](O)[C@H]1C(=O)N2C(C(=O)O)=C([C@H]3COCCO3)S[C@H]12 [SUN 4771, Potassium (1'R, 2"R, 5R, 6S)-6-(1'-hydroxyethyl)-2-(2"-para-dioxanyl)penem-3-carboxylate] | 6.25 | 3.13 | 0.1 | 0.73 | 0.78 | 0.05 | 6.25 | 0.05 | 0.05 | 0.025 | 1.56 | 0.78 | 1.56 | 0.78 | 

From patent publication US4997829A, “Penem compounds, and use thereof” (Suntory Limited, priority 1985, dated 1991)
